{"source": "patent US12030897B2", "about": "“Pyrrolo[2,1-f][1,2,4]triazine derivatives serving as selective HER2 inhibitors and application thereof” (MEDSHINE DISCOVERY INC., priority 2018, dated 2024)", "key": {"NCI-N87 cell": {"system": "NCI-N87 cell", "assay": "Cell proliferation inhibitory activity, Cell-Titer-Glo, NCI-N87", "format": "cell-based, human", "conditions": "Homo sapiens, NCI-N87, 72 h; 3 days incubation", "description": "Experiment object: to detect the inhibitory activity of the tested compound on cell proliferation.\nExperimental principle: the luciferase in the Cell-Titer-Glo reagent uses luciferin, oxygen and ATP as reaction substrates to produce oxyluciferin and release energy in the form of light. Since the luciferase reaction requires ATP, the total amount of light produced by the reaction is proportional to the total amount of ATP that reflects cell viability.\nExperimental Materials: • cell lines: NCI-N87 cell line (ATCC-CRL-5822); BT-474 cell line (ATCC-HTB-20) • Cell culture medium: RPMI 1640 medium (Invitrogen #22400-105; 10% serum Invitrogen #10090148; L-glutamine 1×, Gibco #25030-081; double antibody Hyclone #SV30010) • CellTiter-Glo® luminescence cell viability detection kit (Promega #G7573) • 384-well cell culture plate (Greiner #781090) • Compound plate (LABCYTE #LP-0200) • CO2 incubator (Thermo #371) • Vi-cell cell counter (Beckman Coulter) • Pipette (Eppendorf) • Pipette (Greiner) • Pipetting gun (Eppendorf) • Multifunctional microplate reader (Envision Reader) • ECHO Liquid-handling workstation (Labcyte-ECHO555)\nThe cells were inoculated in a 384-well plate with a density of 1000 cells per well and 25 μL per well. The edge wells were not inoculated with cells, and was supplemented with 25 μL of phosphate buffer.\nThe compound was added to the plate with 9 μL per well.\n(2) The compound was diluted with ECHO liquid-handling workstation, and each well of the cell plate was added with 125 nL of compound. Each well of the cell wells of columns 2 and 23 was added with 125 nL of DMSO, and each well of the Media wells of columns 1 and 24 was added with 125 nL of DMSO.\n(3) Each well of the cell plate was supplemented with 25 μL of culture medium, and the final volume in each well of the cell plate was 50 μL. The concentration of the compound was 10 μM, which was subjected to 3 fold dilution to obtain 10 concentrations. Each concentration was duplicated in left and right wells, and the final DMSO concentration was 0.25%.\n2.3 After adding the compound, it was centrifuged at 1000 rpm for 1 min. The cell plate was placed in a 37° C., 5% CO2 incubator for 3 days.\nThe cell plate was taken from the incubator and equilibrated at room temperature for 30 min. 25 μL of Cell-Titer-Glo reagent was added to each well, shaken for 1 min to make it thoroughly mixed, and centrifuged at 1000 rpm for 1 min. After 10 min, the plate was read on PerkinElmer Envision, and the […] reading time was set to 0.2 seconds."}, "[1]": {"system": "human breast cancer BT-474 cell subcutaneous xenograft tumor", "assay": "In vivo efficacy, BT-474 subcutaneous xenograft tumor model", "parameters": "species or system BALB/c nude mice", "conditions": "BT-474 xenograft, 100 mg/kg", "experimental": "Experiment object: to study the in vivo efficacy of the tested compound in human breast cancer BT-474 cell BALB/c nude mouse subcutaneous xenograft tumor model.\nExperimental animals: female BALB/c nude mice, 6 to 8 weeks old, weight: 18 to 22 grams; Supplier Beijing Weitonglihua Laboratory Animal Technology Co., Ltd.\nHuman breast cancer BT474 cells were cultured in a monolayer in vitro. The culture conditions were: ATCC Hybri-Care Medium with 1.5 g/L sodium bicarbonate, 10% fetal bovine serum, 100 U/mL penicillin and 100 μg/mL streptomycin, and 37° C., 5% CO2 incubator. Conventional digestion treatment with pancreatin-EDTA for passage was carried out twice a week. When the cell saturation was 80% to 90%, and the number reached the requirement, the cells were collected, counted and inoculated.\n0.2 mL (1×10^7 cells) of BT474 cells (with matrigel in a volume ratio of 1:1) were subcutaneously inoculated on the right back of each mouse. The grouping and administration were started when the average tumor volume reached about 168 mm^3. (Estrogen tablets were inoculated three days before cell inoculation).\n7.3 the Preparation of the Tested Samples, Tumor Measurement, Experimental Index and Statistical Analysis were the Same as in Experimental Example 6."}, "[2]": {"assay": "Pharmacokinetic properties in rats", "format": "in vivo", "conditions": "male, SD", "experimental": "The tested compound was dissolved in 10% NMP/10% polyethylene glycol-15-hydroxystearate/80% water, vortexed and sonicated to prepare a 2.5 mg/mL clear solution, which was filtered through a millipore filter for use. Three male SD rats were administered intravenously with the candidate compound solution at a dose of 5 mg/kg. The tested compound was dissolved in 10% polyethylene glycol-15-hydroxystearate/90% water (50 mM citrate buffer, pH 3.0), adjusted to pH of about 3.5, vortexed and sonicated to prepare a 5 mg/ml clear solution, which was filtered through a millipore filter for use. Three male SD rats were administered orally with the candidate compound solution at a dose of 50 mg/kg. The whole-blood for a certain period of time was collected to prepare plasma. The drug concentration was analyzed by the LC-MS/MS method, and the pharmacokinetic parameters were calculated by the Phoenix WinNonlin software (Pharsight, USA)."}, "HER2 (ErbB2)": {"target": "HER2 (ErbB2) (Homo sapiens (Human), UniProt P04626)", "sequence (P04626 23-1255)": "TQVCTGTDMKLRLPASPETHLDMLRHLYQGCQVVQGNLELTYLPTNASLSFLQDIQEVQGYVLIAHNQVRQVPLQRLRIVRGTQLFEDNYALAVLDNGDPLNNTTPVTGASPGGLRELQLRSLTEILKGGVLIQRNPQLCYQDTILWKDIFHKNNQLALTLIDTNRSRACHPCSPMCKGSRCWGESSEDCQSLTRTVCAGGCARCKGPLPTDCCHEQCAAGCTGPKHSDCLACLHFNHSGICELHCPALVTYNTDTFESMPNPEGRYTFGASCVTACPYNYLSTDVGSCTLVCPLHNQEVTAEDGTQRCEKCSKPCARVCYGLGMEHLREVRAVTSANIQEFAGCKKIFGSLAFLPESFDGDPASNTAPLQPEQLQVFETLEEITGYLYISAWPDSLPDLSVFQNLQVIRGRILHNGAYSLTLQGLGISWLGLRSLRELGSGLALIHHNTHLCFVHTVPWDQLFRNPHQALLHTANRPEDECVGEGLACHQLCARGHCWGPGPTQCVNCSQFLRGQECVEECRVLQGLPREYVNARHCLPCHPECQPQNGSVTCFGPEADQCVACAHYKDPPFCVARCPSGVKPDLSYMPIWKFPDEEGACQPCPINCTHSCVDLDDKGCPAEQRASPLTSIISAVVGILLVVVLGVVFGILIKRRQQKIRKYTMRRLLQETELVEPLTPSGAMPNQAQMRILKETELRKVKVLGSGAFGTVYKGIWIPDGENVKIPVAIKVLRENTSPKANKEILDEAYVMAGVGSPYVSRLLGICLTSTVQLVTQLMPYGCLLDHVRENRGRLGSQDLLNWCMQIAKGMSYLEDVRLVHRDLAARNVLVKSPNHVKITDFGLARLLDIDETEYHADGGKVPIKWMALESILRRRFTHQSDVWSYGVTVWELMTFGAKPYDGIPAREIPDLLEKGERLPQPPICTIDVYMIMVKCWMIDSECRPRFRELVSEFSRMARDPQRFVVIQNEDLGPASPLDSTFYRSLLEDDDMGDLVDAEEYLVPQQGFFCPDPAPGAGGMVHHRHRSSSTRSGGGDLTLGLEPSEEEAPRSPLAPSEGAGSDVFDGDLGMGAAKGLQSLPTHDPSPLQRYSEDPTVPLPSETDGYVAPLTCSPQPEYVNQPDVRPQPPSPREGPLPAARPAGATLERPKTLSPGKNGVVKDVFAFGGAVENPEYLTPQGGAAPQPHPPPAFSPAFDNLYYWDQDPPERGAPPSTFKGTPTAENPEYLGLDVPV", "assay": "In vitro enzyme activity, HER2 (ErbB2), [γ-33P]ATP filter assay", "format": "biochemical", "experimental": "The object of this test is to detect the in vitro inhibitory activity of the compound against HER1 (ErbB1), HER2 (ErbB2) and HER4 (ErbB4). The enzymes used in this test were human ErbB1, ErbB2 and ErbB4. Eurofins Pharma Discovery Service provided the activity detection method, and the results of the inhibitory activity of the tested compound against HER1, HER2 and HER4 were shown in Table 1.\nExperimental Steps and Methods (96-Well Plate):\n5-fold diluted tested compound buffer (5 μL), peptide substrate poly(Glu, Tyr) (4:1) (2.5 μL), ErbB (4-20 ng, 2.5 μL), MnCl2 (50 mM, 1.25 μL), dH2O (3.75 μL) and [γ-^33P]ATP (10 μL) were added, and incubated at 30° C. for 10 min. 3% phosphoric acid was added to terminate the reaction, and 10 μL of the specimen was transferred to Filtermate A. The filter was washed with 75 mM phosphoric acid for three times and methanol once, and transferred to a sealed plastic bag, and a scintillation fluid mixture (4 mL) was added, The intensity of the emitted photons was detected on the scintillation luminescence counter. The photon intensity of the enzyme sample was compared with the photon intensity of the internal control sample, and the level of photon intensity reflected the strength of the tyrosine kinase activity."}}, "note": "Values joined by “and” are separate entries in the source; they are usually repeats but may differ in a detail not shown here. Identical values can stand only once."}
{"smiles": "Cc1cc(Nc2ncnn3ccc(CN4CCC(N)CC4)c23)ccc1Oc1ccn2ncnc2c1", "note": "[Example 4]", "values": [{"measurement": "IC50", "setting": "NCI-N87 cell", "result": 7, "unit": "nM"}, {"measurement": "RTV", "setting": "[1]; day 20", "result": "0.20 ± 0.02"}, {"measurement": "T/C", "setting": "[1]; day 20", "result": 2.62, "unit": "%"}, {"measurement": "TGI", "setting": "[1]; day 20", "result": 112.93, "unit": "%"}, {"measurement": "Tumor volume", "setting": "[1]; day 20 (head: Day 21), mean ± SEM", "result": "33 mm^3 and 33 ± 3 mm^3"}, {"measurement": "clearance", "setting": "[2]; plasma, rat, IV 5 mg/kg", "result": 25.4, "unit": "mL/min/kg"}, {"measurement": "Vd", "setting": "[2]; plasma, rat, IV 5 mg/kg, read-out: Vdss", "result": 5.86, "unit": "L/kg"}, {"measurement": "bioavailability", "setting": "[2]; plasma, rat, PO 50 mg/kg, read-out: F (oral bioavailability)", "result": 49.6, "unit": "%"}, {"measurement": "AUC(0-inf)", "setting": "[2]; rat plasma, IV 5 mg/kg", "result": 6.95, "unit": "µM·h"}, {"measurement": "AUC(0-t)", "setting": "[2]; rat plasma, IV 5 mg/kg", "result": 6.91, "unit": "µM·h"}, {"measurement": "half-life", "setting": "[2]; rat plasma, IV 5 mg/kg", "result": 3.34, "unit": "h"}, {"measurement": "AUC(0-inf)", "setting": "[2]; rat plasma, PO 50 mg/kg", "result": 34.9, "unit": "µM·h"}, {"measurement": "AUC(0-t)", "setting": "[2]; rat plasma, PO 50 mg/kg", "result": 34.3, "unit": "µM·h"}, {"measurement": "Cmax", "setting": "[2]; rat plasma, PO 50 mg/kg", "result": 3.63, "unit": "µM"}, {"measurement": "Tmax", "setting": "[2]; rat plasma, PO 50 mg/kg", "result": 3.33, "unit": "h"}, {"measurement": "half-life", "setting": "[2]; rat plasma, PO 50 mg/kg", "result": 3.9, "unit": "h"}, {"measurement": "IC50", "setting": "HER2 (ErbB2)", "result": 12, "unit": "nM"}]}
